Measured values published in patent US8791132B2, “Compounds and methods for treatment of hypertension” (Medivation Technologies, Inc., priority 2011, dated 2014).

What was measured:
[1] = biological target: T1, human recombinant adrenergic α2A receptor (Homo sapiens, UniProt P08913); assay: Radioligand binding, adrenergic α2A ([3H]MK-912); settings: [3H]MK-912, repeat datapoints each shown; for inhibition at 0.1 µM: read-out: Percentage inhibition of ligand binding, Adrenergic α2A (0.1 μM), compound at 0.1 μM; for Percentage inhibition of ligand binding, Adrenergic α2A (0.1 μM): compound at 0.1 μM
T1 construct: expressed in transfected cells; host or cells: insect Sf9 cells
T1 sequence (P08913 1-465): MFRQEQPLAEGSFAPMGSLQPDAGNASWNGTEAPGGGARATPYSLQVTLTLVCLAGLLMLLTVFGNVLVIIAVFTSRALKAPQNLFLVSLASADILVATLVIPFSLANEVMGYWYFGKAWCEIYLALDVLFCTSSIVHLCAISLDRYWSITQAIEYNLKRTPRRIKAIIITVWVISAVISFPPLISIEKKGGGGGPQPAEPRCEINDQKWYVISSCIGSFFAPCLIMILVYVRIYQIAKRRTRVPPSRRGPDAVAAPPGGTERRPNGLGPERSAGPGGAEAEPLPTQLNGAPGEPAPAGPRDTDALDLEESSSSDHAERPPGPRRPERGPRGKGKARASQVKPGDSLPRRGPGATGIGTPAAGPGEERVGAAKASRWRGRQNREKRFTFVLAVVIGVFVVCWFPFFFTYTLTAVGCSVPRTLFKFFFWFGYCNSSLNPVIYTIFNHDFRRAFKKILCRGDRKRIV
How it was run: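 Receptor expressed in insect Sf9 cells, assayed in 50 mM Tris-HCl pH 7.4 with 12.5 mM MgCl2 and 2 mM EDTA. Compounds incubated with 1 nM [3H]MK-912 for 60 min at 25 °C; nonspecific binding defined with 10 μM WB-4101. Filter-bound radioactivity counted; values are percent inhibition of specific binding.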

[2] = biological target: T2, rat adrenergic α1B receptor (Rattus norvegicus, UniProt P15823); assay: Radioligand binding, adrenergic α1B ([3H]Prazosin); settings: [3H]Prazosin, repeat datapoints each shown; for Percentage inhibition of ligand binding, Adrenergic α1B (0.1 μM): compound at 0.1 μM; for inhibition at 0.1 µM: read-out: Percentage inhibition of ligand binding, Adrenergic α1B (0.1 μM), compound at 0.1 μM
T2 construct: rat adrenergic α1B receptor obtained from Wistar Rat liver; from tissue; host or cells: Wistar rat liver
T2 sequence (P15823 1-515): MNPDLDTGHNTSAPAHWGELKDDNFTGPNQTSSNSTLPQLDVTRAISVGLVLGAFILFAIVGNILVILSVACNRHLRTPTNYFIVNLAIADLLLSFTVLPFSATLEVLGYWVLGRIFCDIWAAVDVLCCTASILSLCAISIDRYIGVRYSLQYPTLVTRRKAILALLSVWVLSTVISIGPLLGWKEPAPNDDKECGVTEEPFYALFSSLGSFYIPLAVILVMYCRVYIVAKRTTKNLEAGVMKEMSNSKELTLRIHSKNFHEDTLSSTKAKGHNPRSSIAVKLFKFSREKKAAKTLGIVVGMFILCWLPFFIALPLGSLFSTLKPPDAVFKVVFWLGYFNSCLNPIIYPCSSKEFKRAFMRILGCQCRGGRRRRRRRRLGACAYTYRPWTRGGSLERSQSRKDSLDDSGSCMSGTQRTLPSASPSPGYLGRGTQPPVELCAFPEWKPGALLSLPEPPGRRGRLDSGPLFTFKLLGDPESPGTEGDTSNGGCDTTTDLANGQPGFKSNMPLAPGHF
How it was run: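 Filter binding with Wistar rat liver α1B preparation: test compound plus 0.25 nM [3H]prazosin, 1 h at 25° C in modified Tris-HCl buffer pH 7.4.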

[3] = biological target: T3, human recombinant adrenergic α2B receptor (Homo sapiens, UniProt P18089); assay: Radioligand binding, adrenergic α2B ([3H]Rauwolscine); settings: for Percentage inhibition of ligand binding, Adrenergic α2B (0.03 μM): compound at 0.03 μM; for inhibition at 0.03 µM: read-out: Percentage inhibition of ligand binding, Adrenergic α2B (0.03 μM), compound at 0.03 μM
T3 construct: expressed in transfected cells; host or cells: CHO-K1
T3 sequence (P18089 1-450): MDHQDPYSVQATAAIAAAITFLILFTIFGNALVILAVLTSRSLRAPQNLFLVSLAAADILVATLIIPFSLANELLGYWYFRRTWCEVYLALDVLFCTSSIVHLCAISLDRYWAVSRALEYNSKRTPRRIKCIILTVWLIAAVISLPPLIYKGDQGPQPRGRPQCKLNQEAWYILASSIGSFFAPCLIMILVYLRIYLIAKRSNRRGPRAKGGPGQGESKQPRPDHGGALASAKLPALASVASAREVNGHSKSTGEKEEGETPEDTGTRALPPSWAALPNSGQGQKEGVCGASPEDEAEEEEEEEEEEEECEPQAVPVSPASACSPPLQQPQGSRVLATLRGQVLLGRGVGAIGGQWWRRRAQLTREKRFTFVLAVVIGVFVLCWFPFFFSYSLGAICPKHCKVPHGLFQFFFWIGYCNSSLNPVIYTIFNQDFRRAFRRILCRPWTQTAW
How it was run: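 Readout: percent inhibition of specific [3H]Rauwolscine binding, measured by filtration and counting. Conditions: CHO-K1 cell-expressed receptor, 2.5 nM radioligand, 60 min, 25° C, Tris-HCl pH 7.4 buffer with MgCl2, EDTA, BSA. Non-specific binding: 10 μM Prazosin.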

[4] = [3H]Rauwolscine, repeat datapoints each shown

inhibition at 0.1 µM [1] | Percentage inhibition of ligand binding, Adrenergic α1B (0.1 μM) [2] | inhibition at 0.03 µM ([2]; read-out: Percentage inhibition of ligand binding, Adrenergic α1B (0.03 μM), compound at 0.03 μM) | inhibition at 0.1 µM [2] | Percentage inhibition of ligand binding, Adrenergic α2B (0.03 μM) [3, 4] | Ki ([3]; read-out: Ki α2B) | inhibition at 0.03 µM [3, 4] | inhibition at 0.1 µM ([3]; read-out: Percentage inhibition of ligand binding, Adrenergic α2B (0.1 μM), compound at 0.1 μM, [3H]Rauwolscine, repeat datapoints each shown) | Percentage inhibition of ligand binding, Adrenergic α2A (0.1 μM) [1] | Compound
40% | 70% | 26% | 60% | 105% | 0.53 nM | 103% | 105% | – | Cc1ccc2c(c1)c1c(n2CC(C)(O)c2cccnc2)CCN(C)CC1 (single isomer, unassigned) [II-135b, 1-(3,9-dimethyl-2,3,4,5-tetrahydroazepino[4,5-b]indol-6(1H)-yl)-2-(pyridin-3-yl)propan-2-ol]
7% | 60% | – | – | – | – | 36% | – | – | Cc1ccc2c(c1)c1c(n2CC(C)(O)c2ccc(C(N)=O)nc2)CCN(C)C1 (single isomer, unassigned) [II-136a, 5-(1-(1,2,3,4-tetrahydro-2,8-dimethylpyrido[4,3-b]indol-5-yl)-2-hydroxypropan-2-yl)pyridine-2-carboxamide]
– | 31% | – | – | 32% | – | – | – | 5% | Cc1ccc2c(c1)c1c(n2CC(C)(O)c2ccc(C(N)=O)nc2)CCN(C)C1 (single isomer, unassigned) [II-136b, 5-(1-(1,2,3,4-tetrahydro-2,8-dimethylpyrido[4,3-b]indol-5-yl)-2-hydroxypropan-2-yl)pyridine-2-carboxamide]
– | – | – | 23% | 102% | – | – | – | 47% | Cc1ccc2c(c1)c1c(n2CC(C)(O)c2cccnc2)CC(C)N(C)C1 (single isomer, unassigned) [II-146a, 2-(pyridin-3-yl)-1-(2,3,8-trimethyl-3,4-dihydro-1H-pyrido[4,3-b]indol-5(2H)-yl)propan-2-ol]
– | 13% | – | – | 43% | – | – | – | 5% | Cc1ccc2c(c1)c1c(n2CC(C)(O)c2cccnc2)CC(C)N(C)C1 (single isomer, unassigned) [II-146b, 2-(pyridin-3-yl)-1-(2,3,8-trimethyl-3,4-dihydro-1H-pyrido[4,3-b]indol-5(2H)-yl)propan-2-ol]
– | 17% | – | – | 42% | – | – | – | 8% | Cc1ccc2c(c1)c1c(n2CC(C)(O)c2cccnc2)CC(C)N(C)C1 (single isomer, unassigned) [II-146c, 2-(pyridin-3-yl)-1-(2,3,8-trimethyl-3,4-dihydro-1H-pyrido[4,3-b]indol-5(2H)-yl)propan-2-ol]
– | 13% | – | – | 16% | – | – | – | 3% | Cc1ccc2c(c1)c1c(n2CC(C)(O)c2cccnc2)CC(C)N(C)C1 (single isomer, unassigned) [II-146d, 2-(pyridin-3-yl)-1-(2,3,8-trimethyl-3,4-dihydro-1H-pyrido[4,3-b]indol-5(2H)-yl)propan-2-ol]
– | 32% | – | – | 102% | – | – | – | 57% | CC1Cc2c(c3cc(Cl)ccc3n2CC(C)(O)c2cccnc2)CN1C (single isomer, unassigned) [II-147a, 1-(8-chloro-2,3-dimethyl-3,4-dihydro-1H-pyrido[4,3-b]indol-5(2H)-yl)-2-(pyridin-3-yl)propan-2-ol]
– | 20% | – | – | 66% | – | – | – | 15% | CC1Cc2c(c3cc(Cl)ccc3n2CC(C)(O)c2cccnc2)CN1C (single isomer, unassigned) [II-147b, 1-(8-chloro-2,3-dimethyl-3,4-dihydro-1H-pyrido[4,3-b]indol-5(2H)-yl)-2-(pyridin-3-yl)propan-2-ol]
– | 7% | – | – | 38% | – | – | – | 3% | CC1Cc2c(c3cc(Cl)ccc3n2CC(C)(O)c2cccnc2)CN1C (single isomer, unassigned) [II-147c, 1-(8-chloro-2,3-dimethyl-3,4-dihydro-1H-pyrido[4,3-b]indol-5(2H)-yl)-2-(pyridin-3-yl)propan-2-ol]
– | 10% | – | – | 13% | – | – | – | 4% | CC1Cc2c(c3cc(Cl)ccc3n2CC(C)(O)c2cccnc2)CN1C (single isomer, unassigned) [II-147d, 1-(8-chloro-2,3-dimethyl-3,4-dihydro-1H-pyrido[4,3-b]indol-5(2H)-yl)-2-(pyridin-3-yl)propan-2-ol]
– | 90% | – | – | 104% | – | – | – | 53% | Cc1cnc2c(c1)c1c(n2CC(C)(O)c2ccc(F)cc2)CCN2CCCC12 (single isomer, unassigned) [II-149a, 2-(4-fluoro-phenyl)-1-(9-methyl-1,2,3,4,5,10c-hexahydro-3a,6,7-triazacyclopenta[c]fluoren-6-yl)-propan-2-ol]
– | 59% | – | – | 96% | – | – | – | 27% | Cc1cnc2c(c1)c1c(n2CC(C)(O)c2ccc(F)cc2)CCN2CCCC12 (single isomer, unassigned) [II-149b, 2-(4-fluoro-phenyl)-1-(9-methyl-1,2,3,4,5,10c-hexahydro-3a,6,7-triazacyclopenta[c]fluoren-6-yl)-propan-2-ol]
– | 49% | – | – | 41% | – | – | – | 5% | Cc1cnc2c(c1)c1c(n2CC(C)(O)c2ccc(F)cc2)CCN2CCCC12 (single isomer, unassigned) [II-149c, 2-(4-fluoro-phenyl)-1-(9-methyl-1,2,3,4,5,10c-hexahydro-3a,6,7-triazacyclopenta[c]fluoren-6-yl)-propan-2-ol]
– | 41% | – | – | 44% | – | – | – | 7% | Cc1cnc2c(c1)c1c(n2CC(C)(O)c2ccc(F)cc2)CCN2CCCC12 (single isomer, unassigned) [II-149d, 2-(4-fluoro-phenyl)-1-(9-methyl-1,2,3,4,5,10c-hexahydro-3a,6,7-triazacyclopenta[c]fluoren-6-yl)-propan-2-ol]
